Assay results reported in US20240317721A1, “PYRAZOLYL DERIVATIVES AS INHIBITORS OF THE KRAS MUTANT PROTEIN” (NOVARTIS AG, priority 2021, published 2024).

Target: KRasG12C (M1-K169, biotinylated on the N-terminus) (Homo sapiens (Human), UniProt P01116, G12C)
Assay: Covalent competition assay: scintillation proximity assay (SPA) quantifying covalent modification of KRASG12C
Assay type: binding
Details: competition with radiolabeled covalent probe (Compound B/Compound A), 2 hours incubation, 10 nM KRasG12C
In short: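 Test compounds compete with a radiolabeled covalent probe for modification of N-terminally biotinylated KRasG12C(M1-K169):GDP, final 10 nM protein, 25 nM radio-ligand, 475 nM unlabelled ligand, 2 h with agitation in 20 mM Tris-HCl pH 7.5, 150 mM NaCl, 0.1 mM MgCl2, 0.01% Tween-20.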

| Structure (SMILES) | IC50 [µM] |
| --- | --- |
| C=CC(=O)N1CC2(CC(n3nc(N4CCN(C5COC5)C[C@]4(C)CC)c(-c4c(Cl)c(C)cc5[nH]ncc45)c3C)C2)C1 (single isomer, unassigned) [Example 133b] | 0.005 |
| C=CC(=O)N1CC2(CC(n3nc(N4CCN(C5CCOCC5)CC4(C)C)c(-c4c(Cl)c(C)cc5[nH]ncc45)c3C)C2)C1 (single isomer, unassigned) [Example 134a, 1-(6-(4-(5-chloro-6-methyl-1H-indazol-4-yl)-3-(2,2-dimethyl-4-(tetrahydro-2H-pyran-4-yl)piperazin-1-yl)-5-methyl-1H-pyrazol-1-yl)-2-azaspiro[3.3]heptan-2-yl)prop-2-en-1-one] | > 5 |
| C=CC(=O)N1CC2(CC(n3nc(N4CCN(C5CCOCC5)CC4(C)C)c(-c4c(Cl)c(C)cc5[nH]ncc45)c3C)C2)C1 (single isomer, unassigned) [Example 134b, 1-(6-(4-(5-chloro-6-methyl-1H-indazol-4-yl)-3-(2,2-dimethyl-4-(tetrahydro-2H-pyran-4-yl)piperazin-1-yl)-5-methyl-1H-pyrazol-1-yl)-2-azaspiro[3.3]heptan-2-yl)prop-2-en-1-one] | 0.046 |
| C=CC(=O)N1CC2(CC(n3nc(N4CCN(C5CC6(COC6)C5)CC45CCC5)c(-c4c(Cl)c(C)cc5[nH]ncc45)c3C)C2)C1 (single isomer, unassigned) [Example 135a, 1-(6-(3-(8-(2-oxaspiro[3.3]heptan-6-yl)-5,8-diazaspiro[3.5]nonan-5-yl)-4-(5-chloro-6-methyl-1H-indazol-4-yl)-5-methyl-1H-pyrazol-1-yl)-2-azaspiro[3.3]heptan-2-yl)prop-2-en-1-one] | > 5 |
| C=CC(=O)N1CC2(CC(n3nc(N4CCN(C5CC6(COC6)C5)CC45CCC5)c(-c4c(Cl)c(C)cc5[nH]ncc45)c3C)C2)C1 (single isomer, unassigned) [Example 135b, 1-(6-(3-(8-(2-oxaspiro[3.3]heptan-6-yl)-5,8-diazaspiro[3.5]nonan-5-yl)-4-(5-chloro-6-methyl-1H-indazol-4-yl)-5-methyl-1H-pyrazol-1-yl)-2-azaspiro[3.3]heptan-2-yl)prop-2-en-1-one] | 0.014 |
| C=CC(=O)N1CC2(CC(n3nc(N4CCN(C5COC5)C5COCC54)c(-c4c(Cl)c(C)cc5[nH]ncc45)c3C)C2)C1 (single isomer, unassigned) [Example 136a, 1-(6-(4-(5-chloro-6-methyl-1H-indazol-4-yl)-5-methyl-3-((4aS*,7aS*)-4-(oxetan-3-yl)hexahydrofuro[3,4-b]pyrazin-1(2H)-yl)-1H-pyrazol-1-yl)-2-azaspiro[3.3]heptan-2-yl)prop-2-en-1-one] | 0.846 |
| C=CC(=O)N1CC2(CC(n3nc(N4CCN(C5COC5)C5COCC54)c(-c4c(Cl)c(C)cc5[nH]ncc45)c3C)C2)C1 (single isomer, unassigned) [Example 137b, 1-(6-(4-(5-chloro-6-methyl-1H-indazol-4-yl)-5-methyl-3-((4aS*,7aS*)-4-(oxetan-3-yl)hexahydrofuro[3,4-b]pyrazin-1(2H)-yl)-1H-pyrazol-1-yl)-2-azaspiro[3.3]heptan-2-yl)prop-2-en-1-one] | 0.975 |
| C/C=C/C(=O)N1CC2(CC(n3nc(N4CCN(C5COC5)CC45CCC5)c(-c4c(Cl)c(C)cc5[nH]ncc45)c3C)C2)C1 (single isomer, unassigned) [Example 138a, (E)-1-(6-(4-(5-chloro-6-methyl-1H-indazol-4-yl)-5-methyl-3-(8-(oxetan-3-yl)-5,8-diazaspiro[3.5]nonan-5-yl)-1H-pyrazol-1-yl)-2-azaspiro[3.3]heptan-2-yl)but-2-en-1-one] | > 5 |
| C/C=C/C(=O)N1CC2(CC(n3nc(N4CCN(C5COC5)CC45CCC5)c(-c4c(Cl)c(C)cc5[nH]ncc45)c3C)C2)C1 (single isomer, unassigned) [Example 138b, (E)-1-(6-(4-(5-chloro-6-methyl-1H-indazol-4-yl)-5-methyl-3-(8-(oxetan-3-yl)-5,8-diazaspiro[3.5]nonan-5-yl)-1H-pyrazol-1-yl)-2-azaspiro[3.3]heptan-2-yl)but-2-en-1-one] | 2.78 |
| C=CC(=O)N1CC2(CC(n3nc(N4CCN(C5CCOCC5)CC4(C)C)c(-c4c(Cl)c(Cl)cc5[nH]ncc45)c3C)C2)C1 (single isomer, unassigned) [Example 140a, 1-(6-(4-(5,6-dichloro-1H-indazol-4-yl)-3-(2,2-dimethyl-4-(tetrahydro-2H-pyran-4-yl)piperazin-1-yl)-5-methyl-1H-pyrazol-1-yl)-2-azaspiro[3.3]heptan-2-yl)prop-2-en-1-one] | 0.971 |
| C=CC(=O)N1CC2(CC(n3nc(N4CCN(C5CCOCC5)CC4(C)C)c(-c4c(Cl)c(Cl)cc5[nH]ncc45)c3C)C2)C1 (single isomer, unassigned) [Example 140b, 1-(6-(4-(5,6-dichloro-1H-indazol-4-yl)-3-(2,2-dimethyl-4-(tetrahydro-2H-pyran-4-yl)piperazin-1-yl)-5-methyl-1H-pyrazol-1-yl)-2-azaspiro[3.3]heptan-2-yl)prop-2-en-1-one] | 0.018 |
| C=CC(=O)N1CC2(CC(n3nc(N4CCN(C5COC5)CC45CCOC5)c(-c4c(Cl)c(C)cc5[nH]ncc45)c3C)C2)C1 (single isomer, unassigned) [Example 141b, 1-(6-(4-(5-chloro-6-methyl-1H-indazol-4-yl)-5-methyl-3-(9-(oxetan-3-yl)-2-oxa-6,9-diazaspiro[4.5]decan-6-yl)-1H-pyrazol-1-yl)-2-azaspiro[3.3]heptan-2-yl)prop-2-en-1-one] | 0.104 |
| C=CC(=O)N1CC2(CC(n3nc(N4CCN(C5COC5)CC45CCOC5)c(-c4c(Cl)c(C)cc5[nH]ncc45)c3C)C2)C1 (single isomer, unassigned) [Example 142a, 1-(6-(4-(5-chloro-6-methyl-1H-indazol-4-yl)-5-methyl-3-(9-(oxetan-3-yl)-2-oxa-6,9-diazaspiro[4.5]decan-6-yl)-1H-pyrazol-1-yl)-2-azaspiro[3.3]heptan-2-yl)prop-2-en-1-one] | 0.204 |
| C=CC(=O)N1CC2(CC(n3nc(N4CCN(C5COC5)C[C@@]4(C)CC)c(-c4c(Cl)c(C)cc5[nH]ncc45)c3C)C2)C1 (single isomer, unassigned) [Example 143a] | > 5 |
| C=CC(=O)N1CC2(CC(n3nc(N4CCN(C5COC5)C[C@@]4(C)CC)c(-c4c(Cl)c(C)cc5[nH]ncc45)c3C)C2)C1 (single isomer, unassigned) [Example 143b] | 0.039 |
| C=CC(=O)N1CC2(CC(n3nc(N4CCN(C5COC5)CC45CCCC5)c(-c4c(Cl)c(C)cc5[nH]ncc45)c3C)C2)C1 (single isomer, unassigned) [Example 144a, 1-(6-(4-(5-chloro-6-methyl-1H-indazol-4-yl)-5-methyl-3-(9-(oxetan-3-yl)-6,9-diazaspiro[4.5]decan-6-yl)-1H-pyrazol-1-yl)-2-azaspiro[3.3]heptan-2-yl)prop-2-en-1-one] | > 5 |
| C=CC(=O)N1CC2(CC(n3nc(N4CCN(C5COC5)CC45CCCC5)c(-c4c(Cl)c(C)cc5[nH]ncc45)c3C)C2)C1 (single isomer, unassigned) [Example 144b, 1-(6-(4-(5-chloro-6-methyl-1H-indazol-4-yl)-5-methyl-3-(9-(oxetan-3-yl)-6,9-diazaspiro[4.5]decan-6-yl)-1H-pyrazol-1-yl)-2-azaspiro[3.3]heptan-2-yl)prop-2-en-1-one] | 0.01 |
| C=CC(=O)N1CC2(CC(n3nc(N4CCN(C5CCOCC5)CC45CCC5)c(-c4c(Cl)c(Cl)cc5[nH]ncc45)c3C)C2)C1 (single isomer, unassigned) [Example 145a, 1-(6-(4-(5,6-dichloro-1H-indazol-4-yl)-5-methyl-3-(8-(tetrahydro-2H-pyran-4-yl)-5,8-diazaspiro[3.5]nonan-5-yl)-1H-pyrazol-1-yl)-2-azaspiro[3.3]heptan-2-yl)prop-2-en-1-one] | 4.3 |
| C=CC(=O)N1CC2(CC(n3nc(N4CCN(C5CCOCC5)CC45CCC5)c(-c4c(Cl)c(Cl)cc5[nH]ncc45)c3C)C2)C1 (single isomer, unassigned) [Example 145b, 1-(6-(4-(5,6-dichloro-1H-indazol-4-yl)-5-methyl-3-(8-(tetrahydro-2H-pyran-4-yl)-5,8-diazaspiro[3.5]nonan-5-yl)-1H-pyrazol-1-yl)-2-azaspiro[3.3]heptan-2-yl)prop-2-en-1-one] | 0.012 |
| C=CC(=O)N1CC2(CC(n3nc(N4CCN(C5CCOCC5)C[C@@]4(C)C(F)F)c(-c4c(Cl)c(C)cc5[nH]ncc45)c3C)C2)C1 (single isomer, unassigned) [Example 146a] | > 5 |
| C=CC(=O)N1CC2(CC(n3nc(N4CCN(C5CCOCC5)C[C@@]4(C)C(F)F)c(-c4c(Cl)c(C)cc5[nH]ncc45)c3C)C2)C1 (single isomer, unassigned) [Example 146b] | 0.031 |
| C=CC(=O)N1CC2(CC(n3nc(N4CCN(C5COC5)C[C@]4(C)COC)c(-c4c(Cl)c(C)cc5[nH]ncc45)c3C)C2)C1 (single isomer, unassigned) [Example 147a] | 0.008 |
| C=CC(=O)N1CC2(CC(n3nc(N4CCN(C5COC5)C[C@]4(C)COC)c(-c4c(Cl)c(C)cc5[nH]ncc45)c3C)C2)C1 (single isomer, unassigned) [Example 147b] | 0.923 |
| C=CC(=O)N1CC2(CC(n3nc(N4CCN(C5COC5)C[C@@]4(C)COC)c(-c4c(Cl)c(C)cc5[nH]ncc45)c3C)C2)C1 (single isomer, unassigned) [Example 148a] | > 5 |
| C=CC(=O)N1CC2(CC(n3nc(N4CCN(C5COC5)C[C@@]4(C)COC)c(-c4c(Cl)c(C)cc5[nH]ncc45)c3C)C2)C1 (single isomer, unassigned) [Example 148b] | 0.295 |
| C=CC(=O)N1CC2(CC(n3nc(N4CCN(C5CCOCC5)C[C@]4(C)COC)c(-c4c(Cl)c(C)cc5[nH]ncc45)c3C)C2)C1 (single isomer, unassigned) [Example 149a] | 0.766 |
| C=CC(=O)N1CC2(CC(n3nc(N4CCN(C5CCOCC5)C[C@]4(C)COC)c(-c4c(Cl)c(C)cc5[nH]ncc45)c3C)C2)C1 (single isomer, unassigned) [Example 149b] | 0.009 |
